The results in this text go back to the supplement of paper PMC10307832.

Common to all, as to assay: relative viability (nuclei count vs DMSO), 5 days (fraction); higher = more cells survive
Compound in the assay “XMD8-85 + Pictilisib”: CN1CCN(CC1)C2=CC(=C(C=C2)NC3=NC=C4C(=N3)N(C5=CC=CC=C5C(=O)N4C)C)OC [XMD8-85] + CS(=O)(=O)N1CCN(Cc2cc3nc(-c4cccc5[nH]ncc45)nc(N4CCOCC4)c3s2)CC1 [Pictilisib] (partner 1 µM)
The gist of the method:
(§1)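 A single step with final 0.05% Triton X-100, 1% formaldehyde and 1 ug/ml Hoechst fixed the cells and stained nuclei 5 days after treatment. Lung cancer cell lines in 1536-well plates had been treated by pin tool the day after seeding with one drug alone or a fixed anchor-drug dose plus five library-drug doses (not always all listed) in √10 steps, and nuclei were counted on 4× images. Relative viability is the ratio of nuclei in treated wells to nuclei in vehicle wells, taken as the median of duplicate plates.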

Compound in the assay “4EGI-1 + Bortezomib”: O=C(O)C(Cc1ccccc1[N+](=O)[O-])=NNc1nc(-c2ccc(Cl)c(Cl)c2)cs1 (mixture of isomers) [4EGI-1] + CC(C)C[C@H](NC(=O)[C@H](Cc1ccccc1)NC(=O)c1cnccn1)B(O)O [Bortezomib] (partner 0.002 µM)
The gist of the method:
as §1

Compound in the assay “4EGI-1 + OSI-027”: O=C(O)C(Cc1ccccc1[N+](=O)[O-])=NNc1nc(-c2ccc(Cl)c(Cl)c2)cs1 (mixture of isomers) [4EGI-1] + COc1cccc2cc(-c3nc([C@H]4CC[C@H](C(=O)O)CC4)n4ncnc(N)c34)[nH]c12 [OSI-027] (partner 0.5 µM)
The gist of the method: as §1

Compound in the assay “4EGI-1 + Alpelisib”: O=C(O)C(Cc1ccccc1[N+](=O)[O-])=NNc1nc(-c2ccc(Cl)c(Cl)c2)cs1 (mixture of isomers) [4EGI-1] + Cc1nc(NC(=O)N2CCC[C@H]2C(N)=O)sc1-c1ccnc(C(C)(C)C(F)(F)F)c1 [Alpelisib] (partner 2 µM)
In short, it runs like this:
as §1

Consider NCI-H1792, for which the relative viability in the assay with XMD8-85 + Pictilisib (first compound 0.08 µM) is 0.251; with XMD8-85 + Pictilisib (first compound 0.253 µM), 0.226; in the assay with XMD8-85 + Pictilisib (first compound 2.53 µM) it was 0.276; in the assay with XMD8-85 + Pictilisib (first compound 8 µM), 0.317; with 4EGI-1 + Bortezomib (first compound 0.5 µM), 0.916; with 4EGI-1 + Bortezomib (first compound 1.581 µM) it was 0.392. The relative viability turned out to be 0.933 with 4EGI-1 + Bortezomib (first compound 5 µM); 0.89 with 4EGI-1 + Bortezomib (first compound 15.81 µM); 0.904 with 4EGI-1 + Bortezomib (first compound 50 µM); 0.886 with 4EGI-1 + OSI-027 (first compound 0.5 µM); 0.75 in the assay with 4EGI-1 + OSI-027 (first compound 1.581 µM); 0.62 with 4EGI-1 + OSI-027 (first compound 5 µM). Further, the relative viability was 0.579 with 4EGI-1 + OSI-027 (first compound 15.81 µM); 0.503 with 4EGI-1 + OSI-027 (first compound 50 µM); 0.765 in the assay with 4EGI-1 + Alpelisib (first compound 0.5 µM); 0.684 in the assay with 4EGI-1 + Alpelisib (first compound 1.581 µM); 0.667 in the assay with 4EGI-1 + Alpelisib (first compound 5 µM); 0.533 with 4EGI-1 + Alpelisib (first compound 15.81 µM). In addition, the relative viability in the assay with 4EGI-1 + Alpelisib (first compound 50 µM) was determined as 0.469.
